In patent publication US12576040B2, “Ionizable lipids and methods of manufacture and use thereof” (priority 2020, dated 2026):

system: HEK 293 cells; assay: Firefly Luciferase Assay for mRNA Delivery Efficiency / transfection in vitro; format: cell-based; design: key: +: successfully transfected HEK 293 cells in vitro; −: not active; conditions: Table 12; HEK 293 cells in vitro
Description: FIG. 32 illustrates luciferase reported expression in vitro and in vivo.
In certain embodiments, the invention encompasses a new class of ionizable lipids (the Ionizable Lipids of the Invention) synthesized bearing two ionizable amines and two degradable ester linkers to linoleic acid tails or branched tails. DL=DiLinoleic Acid, ADDE=Azane Diyl DiEthyl, Cx/Cy=carbon spacers, DMA=DiMethylAmine, Pyr=Pyridine, PipZ=PiperaZine, PipD=PiperiDine, DIPA=DiIsopropylamine, DM=DiMethyl, BOD=BisOctylDecyl.
Summary: LNPs were formulated using total lipid concentration of 50 mM comprised of ionizable lipids/DSPC/Cholesterol/PEG-DMG (50:10:38.5:1.5 mol %). Each one of the lipids were solubilized in ethanol until a clear solution was observed. The four lipids were combined to get 50 mM total lipid concentration (25/5/19.25/0.75 mM respectively) and serial dilutions to get 27.74 mM. […] Purified mRNA was ethanol precipitated, washed and resuspended in nuclease-free water to reach a concentration of 1 mg/ml. […] 16 μl Lipid Mix and 32 μl mRNA solution were mixed on Setting 3 and ejected into 48 μl 1×DPBS pH 7.4. The formed LNPS were then diluted into an additional 96 μl 1×DPBS pH 7.4. LNPs were then dialyzed against 1×DPBS pH 7.4 for 6×1 hr. LNPs were then diluted so that 32 ul contained 200 ng and 12K HEK293 cells were transfected with the same […]. • A: Firefly Luciferase Assay for mRNA Delivery Efficiency. After 24 hours of transfection, transfected cells were conditioned to room temperature for 30 minutes prior to the Firefly Luciferase Assay. Quantilum Recombinant Luciferase standard curve was prepared in 10% EMEM in 5-fold serial dilutions. 50 ul of each standard point from the range of 3.9×10^−5 mg/ml to 4.88×10^−3 mg/ml were included in the microplate as a positive enzyme activity control (data not shown) to maintain a linearity of 10^7 RLU/mg/ml. The ONE-Glo substrate, previously conditioned to room temperature for at least 4 hours, was added to each untransfected, transfected and Quantilum wells in a ratio 1:1. Assay plates were incubated for 3 minutes in darkness and immediately introduced into the Cytation 5 Cell Imaging Multi-Mode Reader (Biotek) to read luminescence. The results are illustrated in FIG. 7. • B: Ribogreen Assay for mRNA Encapsulation Efficiency. 1×TE Buffer and Triton Buffer (2% v/v in 1×TE Buffer) were added in duplicates into a black microplate per LNP. LNPs were diluted to 4 ng/ul in 1×DPBS pH 7.4 and added to each TE/Triton well in a ratio 1:1. Two standard curves were included in the Ribogreen Assay, one containing mRNA and 1×TE Buffer and other containing mRNA and Triton Buffer. Each one of these standard curves were used to calculate the mRNA concentration in each TE Buffer or Triton Buffer. This approach using two standard curves is more accurate for calculating the encapsulation efficiency and mRNA concentrations, in comparison to a single standard curve. Standards were included in the microplate after diluted LNPs were added to the plate. Microplates were incubated at 37° C. for 10 minutes to extract LNPs with Triton. Ribogreen reagent was diluted 1:100 in 1×TE Buffer and added to each well in a ratio 1:1. Microplates were immediately introduced into the Cytation 5 Cell Imaging Multi-Mode Reader (Biotek) to read Fluorescence (Ex485/Em528). The results are illustrated in FIG. 8. • C: Dynamic Light Scattering for LNP Size (red dots are PDI right y axis). LNPs were diluted to 6.25 ng/ul in 1×DPBS pH 7.4 and transferred into a quartz cuvette (ZEN2112) to measure size by Dynamic Light Scattering (DLS) in the Zetasizer Nano ZS (Malvern Panalytical) using particle RI of 1.45 and Absorption of 0.001 in 1×PBS at 25° C. with viscosity of 1.02 cP and RI of 1.335.

SMILES | Transfection +/−
CCCCC/C=C\C/C=C\CCCCCCCCOC(=O)CCN(CCC(=O)OCCCCCCCC/C=C\C/C=C\CCCCC)CCN(C(C)C)C(C)C (racemic) [DL-ADDE-C2/C2-DIPA] | −
CCCCC/C=C\C/C=C\CCCCCCCCOC(=O)CCN(CCC(=O)OCCCCCCCC/C=C\C/C=C\CCCCC)CCN(C)C (racemic) [DL-ADDE-C2/C2-DMA] | +
CCCCC/C=C\C/C=C\CCCCCCCCOC(=O)CCN(CCC(=O)OCCCCCCCC/C=C\C/C=C\CCCCC)CC(C)(C)CN(C)C (racemic) [DL-ADDE-C2/C3-DM-DMA] | −
CCCCCCCCCCC(CCCCCCCC)COC(=O)CCN(CCCCN1CCN(C)CC1)CCC(=O)OCC(CCCCCCCC)CCCCCCCCCC (stereo not shown) [BOD-ADDE-C2/C4-4-Me-PipZ] | +
CCCCC/C=C\C/C=C\CCCCCCCCOC(=O)CCN(CCCN1CCN(C)CC1)CCC(=O)OCCCCCCCC/C=C\C/C=C\CCCCC (racemic) [DL-ADDE-C2/C3-4Me-PipZ] | +
CCCCCCCCCCC(CCCCCCCC)COC(=O)CCN(CCC(=O)OCC(CCCCCCCC)CCCCCCCCCC)CCN1CCN(C)CC1 (stereo not shown) [BODD-ADDE-C2/C2-4Me-PipZ] | +
CCCCC/C=C\C/C=C\CCCCCCCCOC(=O)CCN(CCNC(=O)OC(C)(C)C)CCC(=O)OCCCCCCCC/C=C\C/C=C\CCCCC (racemic) [DL-ADDE-C2/C2-BocA] | −
CCCCC/C=C\C/C=C\CCCCCCCCOC(=O)CCN(CCC(=O)OCCCCCCCC/C=C\C/C=C\CCCCC)CCN1CCN(C)CC1 (racemic) [DL-ADDE-C2/C2-4Me-PipZ] | +
CCCCC/C=C\C/C=C\CCCCCCCCOC(=O)CCCCN(CCCCC(=O)OCCCCCCCC/C=C\C/C=C\CCCCC)CCCCN1CCN(C)CC1 (racemic) [DL-ADDE-C4/C4-4Me-PipZ] | +
CCCCC/C=C\C/C=C\CCCCCCCCOC(=O)CCCCN(CCCCC(=O)OCCCCCCCC/C=C\C/C=C\CCCCC)CCCCN1CCCCC1 (racemic) [DL-ADDE-C4/C4-PipD] | +
CCCCC/C=C\C/C=C\CCCCCCCCOC(=O)CCN(CCCCN1CCN(C)CC1)CCC(=O)OCCCCCCCC/C=C\C/C=C\CCCCC (racemic) [DL-ADDE-C2/C4-4Me-PipZ] | +
CCCCC/C=C\C/C=C\CCCCCCCCOC(=O)CCN(CCCCN(C)C)CCC(=O)OCCCCCCCC/C=C\C/C=C\CCCCC (racemic) [DL-ADDE-C2/C4-DMA] | +
CCCCC/C=C\C/C=C\CCCCCCCCOC(=O)CCN(CCCN1CCCC1)CCC(=O)OCCCCCCCC/C=C\C/C=C\CCCCC (racemic) [DL-ADDE-C2/C3-Pyr] | +
CCCCC/C=C\C/C=C\CCCCCCCCOC(=O)CCN(CCC(=O)OCCCCCCCC/C=C\C/C=C\CCCCC)CCN1CCCCC1 (racemic) [DL-ADDE-C2/C2-PipD] | +
CCCCC/C=C\C/C=C\CCCCCCCCOC(=O)CCCCN(CCCCC(=O)OCCCCCCCC/C=C\C/C=C\CCCCC)CCCCN(C)C (racemic) [DL-ADDE-C4/C4-DMA] | +
CCCCC/C=C\C/C=C\CCCCCCCCOC(=O)CCN(CCCN(C)C)CCC(=O)OCCCCCCCC/C=C\C/C=C\CCCCC (racemic) [DL-ADDE-C2/C3-DMA] | +
CCCCC/C=C\C/C=C\CCCCCCCCOC(=O)CCN(CCN)CCC(=O)OCCCCCCCC/C=C\C/C=C\CCCCC (racemic) [DL-ADDE-C2/C2-DeBocA] | −

same assay, conditions: Table 13A

SMILES | Transfection +/−
CCCCC/C=C\C/C=C\CCCCCCCCOC(=O)CCN(CCO)CCC(=O)OCCCCCCCC/C=C\C/C=C\CCCCC (racemic) [DL-ADDE-EA] | −
CCCCC/C=C\C/C=C\CCCCCCCCOC(=O)CCN(CCC(=O)OCCCCCCCC/C=C\C/C=C\CCCCC)CCC(C)C (racemic) [DL-ADDE-IP] | −
CCCCC/C=C\C/C=C\CCCCCCCCOC(=O)CCN(CCCO)CCC(=O)OCCCCCCCC/C=C\C/C=C\CCCCC (racemic) [DL-ADDE-PA] | −

same assay, conditions: Table 13C

SMILES | Transfection +/−
CCCCC/C=C\C/C=C\CCCCCCCC(=O)NCCN [L-Amide-AE] | −
CCCCC/C=C\C/C=C\CCCCCCCC(=O)NCCSSCCN [L-Amide-AEDS] | −
CCCCC/C=C\C/C=C\CCCCCCCC(=O)NCCN(C)C [L-Amide-DMA] | −

system: not given; assay: not given; format: physicochemical; conditions: Table 11a
Description: In certain embodiments, the pKa of the Ionizable Lipids of the Invention included in the LNP is measured by fluorescent enhancement of an anionic lipophilic dye TNS binding to the LNP containing the ionizable lipid. Prior studies have shown that the TNS pKa needs to be near 6.5 for efficient delivery to liver upon IV administration. The pKa in the aqueous phase can be predicted by software such ACDLabs Percepta, resulting in pKas that are higher than the TNS pKa. Given the importance of the LNP pKa in determining their efficiency, we developed new methods (zeta potential, ^1H NMR, modeling) to link the intrinsic pKa of the ionizable lipid to LNP ionization properties, in order to rationally design effective systems for mRNA delivery.
In certain embodiments, the hydrophilic DMG-PEG forms the shell of the LNP. The amount of nucleic acid is represented by the NP mole ratio of the amine on the ionizable lipid to the phosphate groups on the nucleic acid backbone and is typically 3-6. In certain embodiments, the pKa of the LNP to be in the 6-7 range corresponding to the pH in the early endosome. […] The pKa of the LNP was measured using the pH-dependence of fluorescence enhancement of the anionic dye TNS. In certain embodiments, the pKa-dependent endosomal release mechanism was described as an ion-pairing event between the cationic protonated ionizable lipid and anionic endosomal phospholipids where a divergent cone-shape lipid tail of the ionizable lipid facilitates membrane rupture.

SMILES | ΔpKa = Classic-Galas | ΔpKa = Classic-TNS
CCCCC/C=C\C/C=C\CCCCCCCCC1(CCCCCCCC/C=C\C/C=C\CCCCC)OCC(CCN(C)C)O1 (stereo not shown) [KC2] | 2.32 | 2.62
CCCCCCCCCOC(=O)CCCCCCCN(CCO)CCCCCCCC(=O)OC(CCCCCCCC)CCCCCCCC [Moderna Lipid 5] | 3.34 | 2.34
CCCCC/C=C\C/C=C\CCCCCCCCOCC(CN(C)C)OCCCCCCCC/C=C\C/C=C\CCCCC (stereo not shown) [DLinDMA, 1,2-dilinoleyloxy-N,N-dimethylaminopropane] | 1.6 | 1.8
CCCCCCCC(=O)N(CCCN(C)C)C(CCCCCCCCC(=O)OC(CCCCCC)CCCCCC)CCCCCCCCC(=O)OC(CCCCCC)CCCCCC [Acuitas Compound 10] | 3.04 | 3.24
